Test results: patent US20250295757A1 (priority 2022, published 2025)

Test system: SARS-CoV-2 (WT and OTS virus) in VeroET cells
Type: cell-based

Structure (SMILES)	number of infectious virus particles in a TCID50 virus assay
CC(C)C(=O)OC[C@H]1O[C@@H](n2ccc(NO)nc2=O)[C@H](O)[C@@H]1O [Malnupiravir]	reduces
O=c1[nH]cc(F)c(=O)[nH]1 [5-Fluorouracil]	reduces
